Legend:
[1] = Thermal stability (decomposition point); assay type: physicochemical
[2] = Solubility in ether or THF; assay type: physicochemical
Experimental: To 80 mg 1-mesityl-3-tetradecyl imidazolium tetrafluoroborate (Example 97) 4 ml diethylether or 2 ml tetrahydrofuran are added.

Molecule	Decomposition point [1] [°C]	solubility in tetrahydrofuran ([2]; 80 mg in 2 ml tetrahydrofuran)	solubility in diethylether ([2]; 80 mg in 4 ml diethylether)
1-butyl-3-mesitylimidazolium bis(trifluoromethylsulfone)imide [Example 70]	440		
1-heptyl-3-mesitylimidazolium bis(trifluoromethylsulfone)imide [Example 73]	440		
1-hexyl-3-mesitylimidazolium bis(trifluoromethylsulfone)imide [Example 72]	440		
1-mesityl-3-pentylimidazolium bis(trifluoromethylsulfone)imide [Example 71]	440		
1-mesityl-3-propylimidazolium bis(trifluoromethylsulfone)imide [Example 69]	440		
CCCCCCCCCCCCCC[n+]1ccn(-c2c(C)cc(C)cc2C)c1.F[B-](F)(F)F [1-mesityl-3-tetradecyl imidazolium tetrafluoroborate]		dissolved easily	not dissolved

Reference: patent US9260397B2, “Salts comprising aryl-alkyl-substituted imidazolium and triazolium cations and the use thereof” (TECHNISCHE UNIVERSITAET DRESDEN, priority 2008, dated 2016)
